According to patent US10669545B2, “Tumor cell malignant transformation suppressor and anti-tumor agent” (JAPAN SCIENCE AND TECHNOLOGY AGENCY, priority 2015, dated 2020):

Legend:
Assay type in all cases: cell-based, human
A375 cells = experiment: Annexin V-positive cells, A375 cells; conditions: UO126 10 μM or oxaliplatin 20 μM for 48 hours, compared with PLX4032 case
Procedure: The percentage of Annexin V-positive cells was measured as follows. First, FITC labeled Annexin V (manufactured by MBL, Nagoya, Japan) and Hoechst33342 were added to each cell and incubated for 40 minutes. Next, a stained state of the incubated cells was analyzed by using DAPI filter and FITC filter of an imaging cytometer, “In Cell Analyzer 2000” (manufactured by GE healthcare). Percentage (%) of […] was determined by In Cell Analyzer Workstation 3.7 (manufactured by GE healthcare). The statistical difference was determined by the Tukey's multiple comparisons of means test (**: P<0.01, *: P<0.05).
Next, the influence of knockdown of endogenous ZIC5, and PDGFD and ITGA6, which are downstream factors, on a decrease in cell proliferation by PLX4032 and induction of apoptosis was examined. […] Next, the treated cells were added to FITC labeled Annexin V (manufactured by MBL, Nagoya, Japan) and Hoechst33342 and incubated for 40 minutes. […]
(§1) The statistical difference was determined by the Tukey's multiple comparisons of means test (**: P<0.01, *: P<0.05).

[1] = system: phosphorylated Stat3 (pStat3); experiment: Western blotting of phosphorylated Stat3; conditions: A375 cells; 24 hours; WP1066 0-4 μM, IL-6 0-20 ng/mL
Procedure: (§2) A375 cells were treated in a medium in which a concentration of the Stat3 inhibitor, WP1066 (manufactured by Santa Cruz, Dallas, Tex.) was 0, 1, 1.5, 2, 2.5, 3, or 4 μM for 24 hours, and then western blotting was performed to assess the level of ZIC5, pro-PDGFD, pSTAT3, STAT3, and GAPDH. Western blotting was performed in the same manner as above except that anti-ZIC5 antibody (manufactured by Aviva systems biology), anti-PDGFD antibody (manufactured by Santa Cruz), anti-pSTAT3 antibody (manufactured by Cell Signaling), STAT3 antibody (manufactured by BD Biosciences), and anti-GAPDH antibody (manufactured by Cell Signaling) were used.
as §2, with “Interleukin-6 (IL-6)” for “the Stat3 inhibitor, WP1066”, “Novus Biologicals)” for “Santa Cruz, Dallas, Tex.)”, “10,” for “1, 1.5, 2, 2.5, 3,”, “20 ng/mL” for “4 μM”, “anti-pERK” for “anti-PDGFD”, “Cell Signaling),” for “Santa Cruz),”

ZIC5 = experiment: Western blotting of ZIC5; conditions: A375 cells; 24 hours; FAK inhibitor I 0-5 μM, WP1066 0-4 μM, IL-6 0-20 ng/mL
Procedure: The expression level of PDGFD gene and Zic5 gene in the obtained cells was measured by western blotting using GAPDH as an internal control. Western blotting was performed according to a method of Kanemaru et al. (refer to NPL 13) using anti-ZIC5 antibody (manufactured by Aviva systems biology), anti-PDGFD antibody (manufactured by Santa Cruz), and anti-GAPDH antibody (manufactured by Cell Signaling).
(§3) A375 cells were treated in a medium in which a concentration of a FAK inhibitor I (manufactured by Calbiochem) was 0, 1, 2.5, or 5 μM for 24 hours, and the level of ZIC5, pro-PDGFD, pERK, and β-actin was measured by western blotting. Western blotting was performed in the same manner as above except that anti-ZIC5 antibody (manufactured by Aviva systems biology), anti-PDGFD antibody (manufactured by Santa Cruz), anti-pERK antibody (manufactured by Cell Signaling), and anti-β-actin antibody (manufactured by Sigma) were used.
A375 cells were treated in a medium in which a concentration of the Stat3 inhibitor, WP1066 (manufactured by Santa Cruz, Dallas, Tex.) was 0, 1, 1.5, 2, 2.5, 3, or 4 μM for 24 hours, and then western blotting was performed to assess the level of ZIC5, pro-PDGFD, pSTAT3, STAT3, and GAPDH. […]

[2] = system: stably Zic5 gene-expressed line (SK-MEL-28 cells); experiment: Annexin V-positive cells, stably Zic5 gene-expressed line; conditions: WP1066 10 μM for 24 hours; not shown
Procedure: PLX4032 was dissolved in DMSO to be used as a solution, and a line added to an equal amount of DMSO (DMSO treatment) was used as a control. The result of a relative cell number (n=3) in which the number of cells of the cells in which the stably Flag-expressed line was treated with PLX4032 (in the drawing, “+” on the “PLX4032” section, the same applies to the following examples), or the cells treated with DMSO (in the drawing, “−” on the “PLX4032” section, the same applies to the following examples) was set to 1 is shown in FIG. 30. The statistical difference was determined by the Tukey's multiple comparisons of means test (**: P<0.01, *: P<0.05). […]
The percentage of Annexin V-positive cells was measured as follows. […] Next, a stained state of the incubated cells was analyzed by using DAPI filter and FITC filter of an imaging cytometer, “In Cell Analyzer 2000” (manufactured by GE healthcare). Percentage (%) of […] was determined by In Cell Analyzer Workstation 3.7 (manufactured by GE healthcare). The statistical difference was determined by the Tukey's multiple comparisons of means test (**: P<0.01, *: P<0.05).
as §1

pro-PDGFD = experiment: Western blotting of pro-PDGFD; conditions: A375 cells; 24 hours; FAK inhibitor I 0-5 μM, WP1066 0-4 μM
Text: Because phosphorylation of focal adhesion kinase (FAK), which is activated at Focal adhesion, has been associated with melanoma malignancy (refer to NPL 19), FAK change by ZIC5 was examined. Furthermore, focusing on Integrin, alpha 6 (ITGA6) and platelet-derived growth factor D (PDGFD) among the Focal adhesion-related genes in the altered genes by Zic5 knockdown, change in cells was examined. Specifically, a level of phosphorylated FAK (pFAK), total FAK (FAK), ITGA6, pro-PDGFD, and β-actin in A375 cells transfected with siZIC5 or siNeg was assessed by western blotting. Western blotting was performed in the same manner as above except that anti-pFAK antibody (manufactured by Signalway Antibody), anti-FAK antibody (manufactured by Acris), anti-β-actin antibody (manufactured by Sigma), anti-ITGA6 antibody (manufactured by GeneTex), and anti-PDGFD antibody (manufactured by Santa Cruz) were used.
The expression level of PDGFD gene and Zic5 gene in the obtained cells was measured by western blotting using GAPDH as an internal control. […]
A375 cells were treated in a medium in which a concentration of a FAK inhibitor I (manufactured by Calbiochem) was 0, 1, 2.5, or 5 μM for 24 hours, and the level of ZIC5, pro-PDGFD, pERK, and β-actin was measured by western blotting. […]

total STAT3 (STAT3) = experiment: Western blotting of total STAT3; conditions: A375 cells; 24 hours; WP1066 0-4 μM, IL-6 0-20 ng/mL
Procedure: as §2
as §2, with “Interleukin-6 (IL-6)” for “the Stat3 inhibitor, WP1066”, “Novus Biologicals)” for “Santa Cruz, Dallas, Tex.)”, “10,” for “1, 1.5, 2, 2.5, 3,”, “20 ng/mL” for “4 μM”, “anti-pERK” for “anti-PDGFD”, “Cell Signaling),” for “Santa Cruz),”

[3] = system: phosphorylated MLC2 (ppMLC2); experiment: Western blotting of phosphorylated MLC2; conditions: stably Zic5 gene-expressed line treated with ROCK inhibitor; not shown
Procedure: Myosin light chain 2 (MLC2) is known as an important factor for enhancing melanoma motility. It is known that MLC2 is activated through phosphorylation and enhances cell motility by enhancing actomyosin contraction (refer to NPLs 14 and 15). A protein level of phosphorylated MLC2 (ppMLC2), MLC2, and GAPDH of each cell was measured by western blotting. Western blotting was performed according to a method of Kanemaru et al. (refer to NPL 13) using anti-ppMLC2 antibody, anti-MLC2 antibody, and anti-GAPDH antibody (all manufactured by Cell Signaling).
Motility of melanoma cells in a case of siRNA-mediated knockdown of endogenous Zic5 gene was examined by performing Transwell Migration Assay. Specifically, SK-MEL-28 cells and A375 cells, which are melanoma cell lines, were transfected with siZIC5#1, siZIC5#2, siNeg#1, or siNeg#2 described in Table 2 in the same manner as Example 1. In the same manner as above, Transwell Migration Assay was performed with the cells transfected with each siRNA, and then the number of migrated cells was counted. […] The protein level of ppMLC2, MLC2, and GAPDH in the cells in which SK-MEL-28 cells were transfected with siRNA was measured by western blotting. The result of western blotting with SK-MEL-28 cells is shown at the bottom of FIG. 9.
The protein level of ppMLC2, MLC2, and GAPDH in each cell was measured by western blotting in the same manner as above.

[4] = system: stably Zic5 gene-expressed line (SK-MEL-28 cells); experiment: Transwell Migration Assay, stably Zic5 gene-expressed line; conditions: treated or non-treated with ROCK inhibitor
Procedure: Specifically, the stably Zic5 gene-expressed line and the stably Flag-expressed line were seeded in a 24-well plate into which an insert with 8-μm sized pores (manufactured by BD Biosciences) was put and were cultured in RPMI 1640 medium containing 10% FBS, and then the number of migrated cells was counted.
The influence of suppressing MLC2 phosphorylation on migration ability of cells was analyzed. Specifically, Transwell Migration Assay was performed in the same manner as above with the stably Zic5 gene-expressed line and the stably Flag-expressed line in a state of being treated or non-treated with a ROCK inhibitor (Y27632), and then the number of migrated cells was counted.
The number of migrated cells was normalized to a total number of viable cells. A relative cell number (n=3) in which the number of migrated cells transfected with siNeg#1 of each cell was set to 1 is shown in FIG. 29. The statistical difference was determined by the Tukey's multiple comparisons of means test (**: P<0.01, *: P<0.05).

[5] = system: phosphorylated ERK1/2 (Thr202/204) (pERK); experiment: Western blotting of phosphorylated ERK1/2; conditions: A375 cells; 24 hours; FAK inhibitor I 0-5 μM, IL-6 0-20 ng/mL
Procedure: Western blotting was performed in the same manner as above except that anti-pAKT antibody (manufactured by Cell Signaling), anti-AKT antibody (manufactured by Cell Signaling), anti-pERK antibody (manufactured by Cell Signaling), anti-ERK antibody (manufactured by Cell Signaling), and anti-β-actin antibody (manufactured by Sigma) were used.
vemR-1 to 3 cells and HT144 cells were treated with DMSO or PLX4032 solution (which was dissolved in DMSO to become 5 μM) for 48 hours, and the level of pAKT, AKT, pERK, ERK, and β-actin of these cells was assessed by western blotting in the same manner as Example 8.
as §3
A375 cells were treated in a medium in which a concentration of Interleukin-6 (IL-6) (manufactured by Novus Biologicals) was 0, 10, or 20 ng/mL for 24 hours, and then western blotting was performed to assess the level of ZIC5, pro-PDGFD, pSTAT3, STAT3, and GAPDH. […]

| Molecule | percentage of Annexin V-positive cells, drug treatment of siZIC5- vs siNeg-transfected cells (A375 cells) | expression level of pSTAT3 [1] | expression level of ZIC5 (ZIC5) | level of STAT3 (total STAT3 (STAT3)) | further results |
| --- | --- | --- | --- | --- | --- |
| N#CC(=C(/N)Sc1ccccc1N)/C(C#N)=C(/N)Sc1ccccc1N [UO126] | the same results were obtained |  |  |  |  |
| C[C@H](NC(=O)/C(C#N)=C/c1cccc(Br)n1)c1ccccc1 [WP1066, reference compound] |  | decreased in accordance with a concentration of the Stat3 inhibitor | decreased in accordance with a concentration of the Stat3 inhibitor | not changed | suppression of apoptosis by Zic5 [2]: completely suppressed; expression level of pro-PDGFD (pro-PDGFD): decreased in accordance with a concentration of the Stat3 inhibitor |
| C[C@@H](N)[C@H]1CC[C@H](C(=O)Nc2ccncc2)CC1 [Y27632, reference compound] |  |  |  |  | band of ppMLC2 [3]: hardly detected; increase of migrated cells by Zic5 gene overexpression [4]: partially suppressed |
| O=C1[O][Pt]2([NH][C@@H]3CCCC[C@H]3[NH]2)[O]C1=O [oxaliplatin] | the same results were obtained |  |  |  |  |
| IL-6: Interleukin-6 (manufactured by Novus Biologicals) |  | increased in accordance with a concentration of the IL-6 | increased in accordance with a concentration of the IL-6 | not changed | level of pERK [5]: not changed |
